Experimental data taken from patent US20230233569A1 (Revolution Medicines, Inc., priority 2020, published 2023).
Values joined by “and” are separate entries in the source; they are usually repeats but may differ in a detail not shown here. Equal values may be shown once. Read-outs that look alike come from different tables or passages of the source.

Legend:
KRAS G13D = KRAS G13D (Homo sapiens, UniProt P01116+P62937, G13D); experiment: Disruption of BRAF RBD interaction with Ras (FRET / MOA assay, with Cyclophilin A); assay type: biochemical
In short: (§1)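 TR-FRET readout: a drop in ratio relative to DMSO wells marks disruption of the K-Ras:BRAF RBD complex via compound-induced K-Ras–Cyclophilin A ternary complex. Dosing used ten 3-fold steps from 30 μM final, 3 h at 25 °C, then Eu-anti-His 10 nM plus APC-anti-GST 50 nM for another 1.5 h. Values are IC50s.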

KRAS G12D = KRAS G12D (Homo sapiens, UniProt P01116+P62937, G12D); experiment: as above; assay type: biochemical
In short: as §1

KRAS G12C = KRAS G12C (Homo sapiens, UniProt P01116+P62937, G12C); experiment: as above; assay type: biochemical
In short: as §1

KRAS G12V = KRAS G12V (Homo sapiens, UniProt P01116+P62937, G12V); experiment: as above; assay type: biochemical
In short: as §1

KRAS G13C = KRAS G13C (Homo sapiens, UniProt P01116+P62937, G13C); experiment: as above; assay type: biochemical
In short: as §1

KRAS G12S = KRAS G12S (Homo sapiens, UniProt P01116+P62937, G12S); experiment: as above; assay type: biochemical
In short: as §1

NRAS G12C = NRAS G12C (Homo sapiens, UniProt P01111+P62937, G12C); experiment: as above; assay type: biochemical
KRAS WT = KRAS WT (Homo sapiens, UniProt P01116+P62937); experiment: as above; assay type: biochemical
In short: as §1

Capan-1 (K-Ras G12V) = experiment: CellTiter-Glo cell viability assay, 5-day treatment; assay type: cell-based; conditions: Homo sapiens, CAPAN-1, 120 h, 5-day treatment; read-out: Capan-1 Cell Viability assay data (K-Ras G12V, IC50)
In short: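 Seeded cells received test compound by direct dispensing. On day 5 the plates sat at room temperature approximately 30 minutes, then luminescence was measured. Data were normalized to DMSO and curve-fitted with four parameters.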

[1] = KRAS G13D, read-out: KRAS G13D FRET data IC50
[2] = read-out: KRAS G12D FRET data, IC50
[3] = read-out: KRAS G12C FRET data, IC50
[4] = KRAS G12V, read-out: KRAS G12V FRET data IC50
[5] = read-out: KRAS G13C FRET data, IC50
[6] = read-out: KRAS G12S FRET data, IC50
[7] = NRAS G12C, read-out: NRAS G12C FRET data IC50
[8] = KRAS WT, read-out: KRAS WT FRET data IC50
[9] = KRAS G13D FRET data IC50, KRAS G13D
[10] = KRAS G12V FRET data IC50, KRAS G12V
[11] = NRAS G12C FRET data IC50, NRAS G12C
[12] = KRAS WT FRET data IC50, KRAS WT

NRAS G12C, sequence (P01111 whole entry G12C): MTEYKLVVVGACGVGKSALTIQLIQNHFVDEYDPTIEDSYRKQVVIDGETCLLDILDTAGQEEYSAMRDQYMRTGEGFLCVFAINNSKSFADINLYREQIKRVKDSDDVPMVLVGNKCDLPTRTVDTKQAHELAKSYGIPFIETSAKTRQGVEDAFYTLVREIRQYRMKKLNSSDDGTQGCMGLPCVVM
NRAS G12C, sequence (P62937 whole entry): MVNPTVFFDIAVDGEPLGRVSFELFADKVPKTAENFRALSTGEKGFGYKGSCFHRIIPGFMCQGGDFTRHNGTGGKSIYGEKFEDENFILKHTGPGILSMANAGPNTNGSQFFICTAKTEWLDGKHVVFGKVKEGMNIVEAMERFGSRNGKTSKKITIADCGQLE
KRAS G12D, sequence (P01116 1-169 isoform P01116-2 G12D limits assumed): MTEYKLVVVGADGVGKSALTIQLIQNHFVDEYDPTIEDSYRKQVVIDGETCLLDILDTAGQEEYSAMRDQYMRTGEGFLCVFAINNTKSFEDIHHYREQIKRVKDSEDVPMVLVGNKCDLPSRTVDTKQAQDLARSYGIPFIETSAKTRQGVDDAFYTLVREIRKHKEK
KRAS G12D, sequence (P62937 whole entry): as the sequence (P62937 whole entry) above
KRAS G12S, sequence (P01116 1-169 isoform P01116-2 G12S limits assumed): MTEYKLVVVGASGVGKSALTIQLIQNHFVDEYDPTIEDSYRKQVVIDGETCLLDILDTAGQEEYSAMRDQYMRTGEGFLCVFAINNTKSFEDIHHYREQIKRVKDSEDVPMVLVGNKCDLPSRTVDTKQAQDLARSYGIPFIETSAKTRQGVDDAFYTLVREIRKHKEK
KRAS G12S, sequence (P62937 whole entry): as the sequence (P62937 whole entry) above
KRAS WT, sequence (P01116 1-169 isoform P01116-2 limits assumed): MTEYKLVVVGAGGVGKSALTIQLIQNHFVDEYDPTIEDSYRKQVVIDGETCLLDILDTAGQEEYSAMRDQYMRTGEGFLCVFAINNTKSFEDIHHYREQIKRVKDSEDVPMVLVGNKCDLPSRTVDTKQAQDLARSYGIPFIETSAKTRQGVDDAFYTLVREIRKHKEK
KRAS WT, sequence (P62937 whole entry): as the sequence (P62937 whole entry) above
KRAS G13D, sequence (P01116 1-169 isoform P01116-2 G13D limits assumed): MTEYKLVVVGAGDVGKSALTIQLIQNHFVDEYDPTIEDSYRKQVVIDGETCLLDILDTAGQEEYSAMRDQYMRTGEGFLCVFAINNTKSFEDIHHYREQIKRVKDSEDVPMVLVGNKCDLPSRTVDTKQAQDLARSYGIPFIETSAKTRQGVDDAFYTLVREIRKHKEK
KRAS G13D, sequence (P62937 whole entry): as the sequence (P62937 whole entry) above
KRAS G12C, sequence (P01116 1-169 isoform P01116-2 G12C): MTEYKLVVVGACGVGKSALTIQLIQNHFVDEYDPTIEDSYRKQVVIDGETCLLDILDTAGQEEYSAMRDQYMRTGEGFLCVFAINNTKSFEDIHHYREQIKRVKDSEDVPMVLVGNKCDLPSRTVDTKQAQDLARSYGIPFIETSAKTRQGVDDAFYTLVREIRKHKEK
KRAS G12C, sequence (P62937 whole entry): as the sequence (P62937 whole entry) above
KRAS G13C, sequence (P01116 1-169 isoform P01116-2 G13C): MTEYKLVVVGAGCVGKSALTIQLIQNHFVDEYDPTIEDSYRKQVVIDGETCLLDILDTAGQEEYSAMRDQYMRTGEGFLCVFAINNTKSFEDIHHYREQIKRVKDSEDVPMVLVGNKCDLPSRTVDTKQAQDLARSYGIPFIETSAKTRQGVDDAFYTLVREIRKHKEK
KRAS G13C, sequence (P62937 whole entry): as the sequence (P62937 whole entry) above
KRAS G12V, sequence (P01116 1-169 isoform P01116-2 G12V limits assumed): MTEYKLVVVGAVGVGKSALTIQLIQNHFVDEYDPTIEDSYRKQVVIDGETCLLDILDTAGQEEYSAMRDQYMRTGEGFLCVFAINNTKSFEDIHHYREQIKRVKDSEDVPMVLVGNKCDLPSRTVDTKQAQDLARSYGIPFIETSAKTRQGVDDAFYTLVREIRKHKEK
KRAS G12V, sequence (P62937 whole entry): as the sequence (P62937 whole entry) above

SMILES | IC50 (KRAS G13D; [1]) | IC50 (KRAS G12D; [2]) | IC50 (KRAS G12C; [3]) | IC50 (KRAS G12V; [4]) | IC50 (KRAS G13C; [5]) | IC50 (KRAS G12S; [6]) | IC50 (NRAS G12C; [7]) | IC50 (KRAS WT; [8]) | IC50 (Capan-1 (K-Ras G12V)) | IC50 (KRAS G13D; [9]) | IC50 (KRAS G12D; KRAS G12D FRET data, IC50) | IC50 (KRAS G12C; KRAS G12C FRET data, IC50) | IC50 (KRAS G12V; [10]) | IC50 (KRAS G13C; KRAS G13C FRET data, IC50) | IC50 (KRAS G12S; KRAS G12S FRET data, IC50) | IC50 (NRAS G12C; [11]) | IC50 (KRAS WT; [12])
CCn1c(-c2cccnc2[C@@H]2CCCO2)c2c3cc(ccc31)-c1csc(n1)C[C@H](NC(=O)[C@H](C(C)C)N(C)C(=O)N1CC(N(C)C)C1)C(=O)N1CCC[C@H](N1)C(=O)OCC(C)(C)C2 (atropisomer, axis not shown) [Example A327] | > 10 µM | > 10 µM | > 10 µM | > 10 µM | > 10 µM | > 10 µM | > 10 µM | > 10 µM | 1 to 10 µM | – | – | – | – | – | – | – | –
CCn1c(-c2cccnc2[C@H](C)OC)c2c3cc(ccc31)-c1cc(O)cc(c1)C[C@H](NC(=O)[C@@H](NC(C)=O)C(C)(C)OC)C(=O)N1CCC[C@H](N1)C(=O)OCC(C)(C)C2 (racemic) [Example A172] | > 10 µM | > 10 µM | > 10 µM | > 10 µM | 1 to 10 µM | > 10 µM | > 10 µM | > 10 µM | > 10 µM | – | – | – | – | – | – | – | –
CCn1c(-c2cccnc2[C@H](C)OC)c2c3cc(ccc31)-c1cc(O)cc(c1)C[C@H](NS(=O)(=O)CC1OCCC13CNC3)C(=O)N1CCC[C@H](N1)C(=O)OCC(C)(C)C2 (mixture of isomers) [Example A187] | > 10 µM | > 10 µM | > 10 µM | > 10 µM | > 10 µM | > 10 µM | > 10 µM | > 10 µM | > 10 µM | – | – | – | – | – | – | – | –
CCn1c(-c2cccnc2[C@H](C)OC)c2c3cc(ccc31)-c1cc(O)cc(c1)C[C@H](NS(=O)(=O)CCN(C)C)C(=O)N1CCC[C@H](N1)C(=O)OCC(C)(C)C2 (racemic) [Example A190] | > 10 µM | > 10 µM | > 10 µM | > 10 µM | > 10 µM | > 10 µM | > 10 µM | > 10 µM | > 10 µM | – | – | – | – | – | – | – | –
CCn1c(-c2cccnc2[C@H](C)OC)c2c3cc(ccc31)-c1cc(O)cc(c1)C[C@H](NS(=O)(=O)c1cnc[nH]1)C(=O)N1CCC[C@H](N1)C(=O)OCC(C)(C)C2 (racemic) [Example A192] | > 10 µM | > 10 µM | > 10 µM | > 10 µM | > 10 µM | > 10 µM | > 10 µM | > 10 µM | > 10 µM | – | – | – | – | – | – | – | –
CCn1c(-c2cccnc2[C@H](C)OC)c2c3cc(ccc31)-c1cc(O)cc(c1)C[C@H](NC(=O)[C@H](C(C)C)N(C)C(=O)[C@H]1CCNC1)C(=O)N1CCC[C@H](N1)C(=O)OCC(C)(C)C2 [Example A4] | – | – | – | – | – | – | – | – | > 10 µM | 0.1 to 1 µM and 0.01 to 0.1 µM | 1 to 10 µM and 0.01 to 0.1 µM | 0.1 to 1 µM and 0.01 to 0.1 µM | 0.1 to 1 µM and > 10 µM | 0.1 to 1 µM and 0.01 to 0.1 µM | 1 to 10 µM and 0.01 to 0.1 µM | 1 to 10 µM and 0.01 to 0.1 µM | 1 to 10 µM and 0.01 to 0.1 µM
CCn1c(-c2cnccc2COC)c2c3cc(ccc31)-c1cc(O)cc(c1)C[C@H](NC(=O)[C@H]([C@@H](C)OC)N(C)C(C)=O)C(=O)N1CCC[C@H](N1)C(=O)OCC(C)(C)C2 [Example A76] | 0.1 to 1 µM | 1 to 10 µM | 0.1 to 1 µM | 0.1 to 1 µM | 0.1 to 1 µM | 0.1 to 1 µM | 0.1 to 1 µM | 0.1 to 1 µM | 1 to 10 µM | – | – | – | – | – | – | – | –
CCn1c(-c2cnccc2COC)c2c3cc(ccc31)-c1cc(O)cc(c1)C[C@H](NC(=O)[C@H](C(C)C)N(C)C(=O)[C@@H]1CN(C(C)=O)C[C@@H]1C(F)(F)F)C(=O)N1CCC[C@H](N1)C(=O)OCC(C)(C)C2 [Example A80] | 0.1 to 1 µM | 0.1 to 1 µM | 0.1 to 1 µM | 1 to 10 µM | 0.1 to 1 µM | 0.1 to 1 µM | 0.1 to 1 µM | 0.1 to 1 µM | 1 to 10 µM | – | – | – | – | – | – | – | –
CCn1c(-c2cnccc2COC)c2c3cc(ccc31)-c1cc(O)cc(c1)C[C@H](NC(=O)[C@H](C(C)C)N(C)C(=O)[C@H](C)O)C(=O)N1CCC[C@H](N1)C(=O)OCC(C)(C)C2 [Example A93] | – | – | – | – | – | – | – | – | 1 to 10 µM | 0.1 to 1 µM | 1 to 10 µM | 0.1 to 1 µM | 0.1 to 1 µM | 0.1 to 1 µM | 0.1 to 1 µM | 0.1 to 1 µM | 0.1 to 1 µM
CCn1c(-c2cccnc2[C@H](C)OC)c2c3cc(ccc31)-c1cccc(c1)C[C@H](NC(=O)[C@H](C(C)C)N(C)C(=O)[C@H]1CCN(C(=O)CN(C)C)C1)C(=O)N1CCC[C@H](N1)C(=O)OCC(C)(C)C2 [Example A96] | 1 to 10 µM | 1 to 10 µM | 0.1 to 1 µM | 1 to 10 µM | 0.1 to 1 µM | 1 to 10 µM | 0.1 to 1 µM | 1 to 10 µM | 1 to 10 µM | – | – | – | – | – | – | – | –
CCn1c(-c2cccnc2[C@H](C)OC)c2c3cc(ccc31)-c1cccc(c1)C[C@H](NC(=O)[C@H](C(C)C)N(C)C(=O)[C@H]1CCN(C(=O)CNC)C1)C(=O)N1CCC[C@H](N1)C(=O)OCC(C)(C)C2 [Example A98] | – | – | – | – | – | – | – | – | > 10 µM | 1 to 10 µM | 1 to 10 µM | 0.1 to 1 µM | 1 to 10 µM | 0.1 to 1 µM | 1 to 10 µM | 0.1 to 1 µM | 1 to 10 µM
CCn1c(-c2cccnc2[C@H](C)OC)c2c3cc(ccc31)-c1cccc(c1)C[C@H](NC(=O)[C@H](C(C)C)N(C)C(=O)[C@H]1CCN(C(=O)CN)C1)C(=O)N1CCC[C@H](N1)C(=O)OCC(C)(C)C2 [Example A105] | 1 to 10 µM | 1 to 10 µM | 0.1 to 1 µM | 1 to 10 µM | 0.1 to 1 µM | 1 to 10 µM | 1 to 10 µM | 1 to 10 µM | > 10 µM | – | – | – | – | – | – | – | –
CCn1c(-c2cccnc2[C@H](C)OC)c2c3cc(ccc31)-c1csc(n1)C[C@H](NC(=O)[C@H](C(C)C)N(C)C(=O)[C@H]1CCN(C(=O)CN)C1)C(=O)N1CCC[C@H](N1)C(=O)OCC(C)(C)C2 [Example A106] | 1 to 10 µM | 0.1 to 1 µM | 0.1 to 1 µM | 1 to 10 µM | 0.1 to 1 µM | 1 to 10 µM | 0.1 to 1 µM | 0.1 to 1 µM | 1 to 10 µM | – | – | – | – | – | – | – | –
CCn1c(-c2cccnc2[C@H](C)OC)c2c3cc(ccc31)-c1cc(O)cc(c1)C[C@H](NC(=O)[C@H](C(C)C)N(C)C(=O)C1(F)CC1)C(=O)N1CCC[C@H](N1)C(=O)OCC(C)(C)C2 [Example A165] | – | – | – | 0.01 to 0.1 µM | – | – | – | – | 0.01 to 0.1 µM | – | – | – | – | – | – | – | –
CCn1c(-c2cccnc2[C@H](C)OC)c2c3cc(ccc31)-c1csc(n1)C[C@H](NC(=O)[C@H](C(C)C)N1CCC3(CN(C)C3)C1=O)C(=O)N1CCC[C@H](N1)C(=O)OCC(C)(C)C2 [Example A222] | – | – | – | > 10 µM | – | – | > 10 µM | – | > 10 µM | – | – | – | – | – | – | – | –
